Source: patent publication US12202866B2, “Therapeutic nanoconjugates and uses thereof” (UNIVERSITAT AUTÒNOMA DE BARCELONA (UAB), priority 2017, dated 2025)
Marks after values point to notes of the source that are not given here.

Tests used:
[1] = test system: CXCR4^+ SW1417 CRC metastases; assay: Prevention of metastasis protocol, SC+ORT CXCR4+ SW1417 CRC model; type: in vivo, NOD/SCID mice
Method: Thus, a SC+ORT model, was produced: when SC tumors reached a volume of 700 mm3, mice were sacrificed by cervical dislocation and tumours were excised, discarding the necrotic areas. Three hundred mg of viable tumour tissue was then cut into pieces and disaggregated in a mix of 0.05% trypsin (Invitrogen) and 100 mg/ml DNase (Sigma-Aldrich). The mix was pipetted 30 times, using a 10 ml pipette, and incubated for 10 minutes at 37° C. with shaking. It was then re-pipetted 30 times, using 10 ml, 3 ml and 1 ml pipettes, and re-incubated for 5 minutes at 37° C. with shaking. This re-pipetting step was then repeated. The obtained SW1417 single-cell suspension was filtered through a cell strainer and centrifuged at 1,000 g for 10 minutes before counting the cells. Then 2×10^6 cells, […] resuspended in 50 μl of media, were microinjected in the cecum of each mouse, following the method described above.
The SC+ORT metastatic CRC model developed in NOD/SCID mice was used to evaluate the capacity of the nanoconjugate for metastasis prevention.
(§1) At necropsy, the number and size of visible metastases in the organs where dissemination is expected in colorectal cancer (lymph nodes, liver, lung and peritoneum) were recorded for each mouse in all compared groups. Also the number of metastatic foci that emitted bioluminiscence (derived from the SW1417-luci CRC cells) were counted ex vivo in the target organs for metastasis, using the IVIS® 200-Spectrum (Perkin-Elmer). Samples for histopathological and immunohistochemical analyses were collected and processed. Two independent observers analyzed H&E stained samples to count the number and measure the size of all observed metastatic foci in three (metastasis prevention experiment) or six (regression of metastasis experiment) sections of each organ in each mouse. The images were taken and the measurements were performed with an Olympus microscope with the CellD Olympus software (v3.3). […] The obtained results were used to study a possible correlation between CXCR4^+ CCF and antimetastatic effect at the different sites.
(§2) In order to analyze differences between control and experimental groups of affected mice in metastatic rates at the different organs, Fisher's exact test was used. The Mann-Whitney test was used to compare number and size of metastatic foci in the affected organs among groups. All quantitative values were expressed as mean±SE and the statistical tests were performed using SPSS version 11.0 (IBM, New York, USA). Differences among groups was considered significant at a p<0.05.

[2] = test system: subcutaneous CXCR4^+ SW1417 CRC tumor; assay: Induction of DNA double strand breaks and apoptosis in tumor tissue, SC SW1417 model; type: in vivo, mouse
Method: The SC SW1417 mouse model was used to determine the capacity of the nanoconjugate to induce DNA damage and apoptosis in tumor tissue, as well as the kinetics of CXCR4 expression in the membrane of tumor cells after treatment, regarding the fraction of CXCR4 expressing tumor cells and their intensity, since CXCR4^+ are the target cells for the nanoconjugate. […] The mice had been treated with equimolecular dosages of T22-GFP-H6, free oligo-FdU or Buffer, in which also were determined the levels of CXCR4 expression in tumor tissue at the different time points.

[3] = test system: subcutaneous CXCR4^+ SW1417 CRC tumor; assay: Tumor uptake and tumor cell internalization in subcutaneous CXCR4+ SW1417 CRC model; design: tumor uptake measured by fluorescence emission: dose or concentration left out as unconfirmed
Method: SC model was used to assess tumor uptake and nanoconjugate internalization and in vivo competition studies using co-administration of the CXCR4 antagonist AMD3100.
Two hours, 5 h and 24 h after the administration, the mouse was euthanized to resect the tumor and register ex vivo the intensity of the green fluorescence emitted by the nanoconjugated that biodistributed to tumor tissue using the IVIS® 200-Spectrum (Perkin Elmer, MA, USA). Following, tumor tissue samples were taken, processed and performed immunohistochemistry (IHC) to determine the presence or absence of the corresponding nanoconjugate into cytosol of tumor cells using an anti-GFP antibody (1:300; Santa-Cruz Biotechnology, CA, USA). […] Apoptosis was assessed determining nuclear condensation with Hoechst staining of tumor tissue sections and counting the number of condensed or defragmented nuclei in five high-power magnification fields in different sections for each tumor using the Olympus DP73 digital camera and the CellD Imaging 3.3 programme (Olympus, Tokyo, Japan).

[4] = test system: CXCR4^+ SW1417 CRC metastases; assay: Regression of established metastasis protocol, orthotopic CXCR4+ SW1417 CRC model; type: in vivo, Swiss nude mice
Method: Swiss nude mice were anesthetized with ketamine and xylazine, exteriorizing their cecum by a laparotomy. 2×106 CXCR4^+ SW1417-luci CRC cells (expressing luciferase, to allow ex vivo bioluminescent identification of metastatic foci in affected organs at the end of therapy) were suspended in […] of modified Eagle's medium, and loaded into a sterile micropipette. The cell suspension was slowly injected, under a binocular lens, with an approximate 30° angle and its tip introduced 5 mm into the cecal wall. Afterward, a slight pressure was applied with a cotton stick at approximately 2 mm from the injection point in the direction of the pipette axis. The pipette was pulled out and the area around the injection cleaned with 3% iodine. After injection, the gut was returned to the abdominal cavity and closed with surgical staples.
The orthotopic and metastatic CRC model developed in Swiss nude mice was employed to perform experiments of metastasis regression. […] The experiment was finished when the first animal of the buffer-treated-group had to be euthanized. See below the studied parameters to evaluate the antimetastatic effect.
as §1, §2

[5] = Prevention protocol, 3 histology sections, mean + SE
[6] = versus free oligo-FdU mice, histology, end of experiment

Substance: T22-GFP-H6-FdU: nanoconjugate of T22-GFP-H6 protein nanoparticle covalently bound via maleimide linker to thiol-functionalized pentameric floxuridine oligonucleotide (oligo-FdU)
- LN foci, mean foci number per mouse ([1]; Prevention protocol, 20 μg (or equimolecular) q3d x12 i.v., 3 histology sections, mean + SE): 2.0 ± 0.4 ^a
- Liver foci, mean foci number per mouse [1, 5]: 0.2 ± 0.1 ^b,c
- Lung foci, mean foci number per mouse [1, 5]: 1.3 ± 0.9 ^d,e
- Peritoneal foci, mean foci number per mouse [1, 5]: 0.4 ± 0.3 ^f,g
- reduction in the size of peritoneal foci ([1]; compared to free oligo-FdU): 2.4 fold
- Metastasis Liver [%] ([1]; end of prevention experiment): [17]^a %
- Metastasis Liver, affected/total mice ([1]; end of prevention experiment): 2/12
- Metastasis Lung [%] ([1]; end of prevention experiment): [17]^b,c %
- Metastasis Lung, affected/total mice ([1]; end of prevention experiment): 2/12
- Metastasis Lymph nodes [%] ([1]; end of prevention experiment): [75] %
- Metastasis Lymph nodes, affected/total mice ([1]; end of prevention experiment): 9/12
- Metastasis Peritoneal [%] ([1]; end of prevention experiment): [17]^d %
- Metastasis Peritoneal, affected/total mice ([1]; end of prevention experiment): 2/12
- metastasis development in liver and lung by ex vivo luminescence ([1]; end of prevention experiment): blocked metastasis development
- remaining CXCR4^+ CCF in liver, lung and peritoneal metastatic tissue (anti-CXCR4 IHC) ([1]; end of prevention experiment): higher reduction
- prevention of LN metastases ([1]; histology, end of experiment): did not prevent
- Metastasis Size, Liver ([1]; mean foci size): 8.7 μm^2 × 10^−3
- Metastasis Size, Lung ([1]; mean foci size): 15.1 μm^2 × 10^−3
- Metastasis Size, Lymph nodes ([1]; mean foci size): 79.3 μm^2 × 10^−3
- Metastasis Size, Peritoneal ([1]; mean foci size): 126.6 μm^2 × 10^−3
- Primary tumor Positive/#Mice ([1]; mice bearing a primary tumor out of total mice per group): 12/12
- Primary tumor [%] ([1]; percent of mice bearing a primary tumor): [100] %
- primary tumor growth by in vivo bioluminescence emission ([1]; prevention experiment, compared to buffer-treated mice): no significant inhibition
- reduction in the total number of metastases in liver or lung [1, 6]: 3.1-3.7 times
- reduction in the total number of metastases in the peritoneum [1, 6]: 10.3 fold
- number of apoptotic figures in tumor tissue (Hoechst nuclear condensation or defragmentation) ([2]; 24 h after injection): 13.9±0.5
- number of DSBs foci in tumors (anti-gH2AX IHC) ([2]; five hours after treatment): 22.8±1.4
- tumor uptake measured by fluorescence emission ([3]; 5 h after injection, i.v.): selective tumor uptake
- internalization into CXCR4^+ tumor cell cytosol by anti-GFP immunohistochemistry ([3]; single i.v. dose): internalized
- LN foci, mean foci number per mouse ([4]; Regression protocol, 20 μg (or equimolecular) q3d x10 i.v., 6 histology sections, mean + SE): 0.4 ± 0.1 ^h,i
- Lung foci, mean foci number per mouse ([4]; Regression protocol, 6 histology sections, mean + SE): 0.7 ± 0.4 ^k,l,m
- regression of established lung metastasis ([4]; compared to free oligo-FdU): more potent than free oligo-FdU
- primary tumor growth by in vivo bioluminescence emission ([4]; regression experiment, compared to buffer treated animals): significantly inhibited tumor growth
